Test in all cases: relative viability (nuclei count vs DMSO), 5 days (fraction); higher = more cells survive
Test [1] concerns IA-LM. Summed up: (§1)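 Relative viability divides the nuclei count in treated wells by that in vehicle wells. Lung cancer cell lines were seeded in 1536-well plates, dosed by pin tool the next day, and fixed and stained after 5 days in one step with final 0.05% Triton X-100, 1% formaldehyde and 1 ug/ml Hoechst. Dosing was a single drug or a fixed anchor-drug dose plus five library-drug doses (not always all listed) in √10 steps, and values are medians of duplicate plates imaged at 4×.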

Test [2] deals with NCI-H1563. In a few lines: as §1
The test system of test [3] is A549. Summed up:
as §1

For test [4], the system named is NCI-H1299. In a few lines:
as §1

For test [5], the system named is NCI-H1703. Summed up:
as §1

Test [6] relates to NCI-H1623. Summed up:
as §1

With `Nc1cccc2c1CN(C1CCC(=O)NC1=O)C2=O` (stereo not given) [Lenalidomide] + CS(=O)(=O)N1CCN(Cc2cc3nc(-c4cccc5[nH]ncc45)nc(N4CCOCC4)c3s2)CC1 [Pictilisib] (partner 1 µM), the relative viability in test [1] (first compound 0.253 µM) is 0.37; in test [1] (first compound 0.8 µM), 0.375; in test [1] (first compound 2.53 µM), 0.338; in test [1] (first compound 8 µM), 0.359; in test [2] (first compound 0.253 µM), 0.713; in test [2] (first compound 0.8 µM), 0.667. Also, the relative viability stood at 0.685 in test [2] (first compound 2.53 µM); 0.638 in test [2] (first compound 8 µM); 0.491 in test [3] (first compound 0.253 µM); 0.448 in test [3] (first compound 0.8 µM); 0.553 in test [3] (first compound 2.53 µM); 0.52 in test [3] (first compound 8 µM). The relative viability stood at 0.733 in test [4] (first compound 0.253 µM); 0.923 in test [4] (first compound 0.8 µM); 0.931 in test [4] (first compound 2.53 µM); 0.963 in test [4] (first compound 8 µM); 0.245 in test [5] (first compound 0.253 µM); 0.27 in test [5] (first compound 0.8 µM). The relative viability in test [5] (first compound 2.53 µM) worked out at 0.287; in test [5] (first compound 8 µM), 0.267.
As to `Nc1cccc2c1CN(C1CCC(=O)NC1=O)C2=O` (stereo not given) [Lenalidomide] + Nc1ncn([C@H]2C[C@H](O)[C@@H](CO)O2)c(=O)n1 [Decitabine] (partner 2 µM), the relative viability in test [3] (first compound 0.253 µM) came out at 0.211; in test [3] (first compound 0.8 µM) it was 0.22; in test [3] (first compound 2.53 µM) it was 0.268; in test [3] (first compound 8 µM), 0.269.
Regarding `Nc1cccc2c1CN(C1CCC(=O)NC1=O)C2=O` (stereo not given) [Lenalidomide] + C[C@@H](Oc1cc(-c2cnn(C3CCNCC3)c2)cnc1N)c1c(Cl)ccc(F)c1Cl [Crizotinib] (partner 1 µM), the relative viability in test [1] (first compound 0.253 µM) came to 0.833; in test [1] (first compound 0.8 µM) it was 0.753; in test [1] (first compound 2.53 µM), 0.759; in test [1] (first compound 8 µM), 0.756; in test [2] (first compound 0.253 µM) it was 0.882; in test [2] (first compound 0.8 µM), 0.782. Moreover, the relative viability in test [2] (first compound 2.53 µM) came to 0.811; in test [2] (first compound 8 µM) it was 0.88; in test [3] (first compound 0.253 µM), 0.777; in test [3] (first compound 0.8 µM), 0.835; in test [3] (first compound 2.53 µM), 0.745; in test [3] (first compound 8 µM), 0.902. The relative viability in test [4] (first compound 0.253 µM) stood at 0.978; in test [4] (first compound 0.8 µM) it was 1; in test [4] (first compound 2.53 µM), 1.01; in test [4] (first compound 8 µM) it was 0.977; in test [5] (first compound 0.253 µM), 0.467; in test [5] (first compound 0.8 µM), 0.707. Moreover, the results for the relative viability in test [5] (first compound 2.53 µM) and in test [5] (first compound 8 µM) were 0.671 and 0.89, respectively.
For `Nc1cccc2c1CN(C1CCC(=O)NC1=O)C2=O` (stereo not given) [Lenalidomide] + C[C@]1(O)C[C@@H](c2nc(-c3ccc4ccc(-c5ccccc5)nc4c3)c3c(N)nccn32)C1 [Linsitinib] (partner 1 µM), the relative viability in test [1] (first compound 0.253 µM) was 0.605; in test [1] (first compound 0.8 µM) it was 0.468; in test [1] (first compound 2.53 µM) it was 0.667; in test [1] (first compound 8 µM), 0.49; in test [2] (first compound 0.253 µM), 1.17; in test [2] (first compound 0.8 µM), 1.16. Also, the relative viability in test [2] (first compound 2.53 µM) was found to be 1.08; in test [2] (first compound 8 µM) it was 1.01; in test [3] (first compound 0.253 µM) it was 0.539; in test [3] (first compound 0.8 µM) it was 0.573; in test [3] (first compound 2.53 µM), 0.56; in test [3] (first compound 8 µM), 0.368. Further, the relative viability amounted to 0.954 in test [4] (first compound 0.253 µM); 0.968 in test [4] (first compound 0.8 µM); 1.06 in test [4] (first compound 2.53 µM); 0.852 in test [4] (first compound 8 µM); 0.566 in test [5] (first compound 0.253 µM); 1.01 in test [5] (first compound 0.8 µM). The relative viability in test [5] (first compound 2.53 µM) turned out to be 0.956; in test [5] (first compound 8 µM) it was 0.431.
On to `Nc1cccc2c1CN(C1CCC(=O)NC1=O)C2=O` (stereo not given) [Lenalidomide] + COc1cccc2cc(-c3nc([C@H]4CC[C@H](C(=O)O)CC4)n4ncnc(N)c34)[nH]c12 [OSI-027] (partner 0.5 µM), for which the relative viability stood at 0.433 in test [6] (first compound 0.253 µM); 0.418 in test [6] (first compound 0.8 µM); 0.375 in test [6] (first compound 2.53 µM); 0.392 in test [6] (first compound 8 µM); 0.751 in test [2] (first compound 0.253 µM); 0.8 in test [2] (first compound 0.8 µM). Moreover, the relative viability in test [2] (first compound 2.53 µM) came to 0.804; in test [2] (first compound 8 µM), 0.72.
`Nc1cccc2c1CN(C1CCC(=O)NC1=O)C2=O` (stereo not given) [Lenalidomide] + Nc1nc2[nH]cc(CCc3ccc(C(=O)N[C@@H](CCC(=O)O)C(=O)O)cc3)c2c(=O)[nH]1 [Pemetrexed] (partner 0.2 µM): the relative viability in test [2] (first compound 0.253 µM) was 1; in test [2] (first compound 0.8 µM) it was 0.361; in test [2] (first compound 2.53 µM), 0.952; in test [2] (first compound 8 µM), 0.637.
As for `Nc1cccc2c1CN(C1CCC(=O)NC1=O)C2=O` (stereo not given) [Lenalidomide] + Cc1nc(Nc2ncc(C(=O)Nc3c(C)cccc3Cl)s2)cc(N2CCN(CCO)CC2)n1 [Dasatinib] (partner 0.075 µM), the relative viability in test [6] (first compound 0.253 µM) turned out to be 0.51; in test [6] (first compound 0.8 µM), 0.466; in test [6] (first compound 2.53 µM) it was 0.523; in test [6] (first compound 8 µM), 0.497; in test [2] (first compound 0.253 µM) it was 0.477; in test [2] (first compound 0.8 µM), 0.43. The relative viability in test [2] (first compound 2.53 µM) was 0.499; in test [2] (first compound 8 µM), 0.464.
With `Nc1cccc2c1CN(C1CCC(=O)NC1=O)C2=O` (stereo not given) [Lenalidomide] + CC1(C)CCC(c2ccc(Cl)cc2)=C(CN2CCN(c3ccc(C(=O)NS(=O)(=O)c4ccc(N[C@H](CCN5CCOCC5)CSc5ccccc5)c(S(=O)(=O)C(F)(F)F)c4)cc3)CC2)C1 [Navitoclax] (partner 0.5 µM), the relative viability in test [1] (first compound 0.253 µM) was determined as 0.895; in test [1] (first compound 0.8 µM), 0.715; in test [1] (first compound 2.53 µM), 0.829; in test [1] (first compound 8 µM), 0.786; in test [3] (first compound 0.253 µM), 1.21; in test [3] (first compound 0.8 µM), 1.17. The relative viability came to 1.21 in test [3] (first compound 2.53 µM); 1.24 in test [3] (first compound 8 µM); 1.05 in test [4] (first compound 0.253 µM); 1.04 in test [4] (first compound 0.8 µM); 1.07 in test [4] (first compound 2.53 µM); 1.05 in test [4] (first compound 8 µM). Moreover, the relative viability turned out to be 0.994 in test [5] (first compound 0.253 µM), 1.28 in test [5] (first compound 0.8 µM), 1.23 in test [5] (first compound 2.53 µM) and 1.23 in test [5] (first compound 8 µM).

The record behind these values is the supplement of paper PMC10307832.
